Assay: Waters ACQUITY UPLC BEH C18, 100 × 2.1 mm, 1.7 µm, 40 °C, 0.3 to 0.4 mL/min, estimated dead time 0.63 min; A: water + 0.1% formic acid; B: methanol + 0.1% formic acid; gradient (min/%B) 0/0.5 0.1/0.5 10/80 10.1/99.5 12/99.5
Conditions: stereoisomer not certain

`CC1CCC(C(C)C2CCC3C4CC(=O)C5CC(O)CCC5(C)C4CCC23C)=NC1` (stereo unspecified) and `CC1CNC2(OC3CC4C5CCC6CC(OC7OC(CO)C(OC8OC(CO)C(O)C(O)C8OC8OC(CO)C(O)C(O)C8O)C(O)C7O)CCC6(C)C5CCC4(C)C3C2C)C(O)C1` (stereo unspecified) are within 1.5-fold of each other in LC retention time: 4.95 min for the first, 4.24 min for the second.

`COc1cc(C=CC(=O)OC2C(OC3C(Oc4ccc(-c5cc(=O)c6c(O)cc(O)cc6o5)cc4)OC(C(=O)O)C(O)C3O)OC(C(=O)O)C(O)C2O)ccc1O` (stereo unspecified) and `O=C(O)C1OC(OC2C(Oc3cc(O)c4c(=O)cc(-c5ccc(O)cc5)oc4c3)OC(C(=O)O)C(O)C2O)C(O)C(O)C1O` (stereo unspecified) are within 1.5-fold of each other in LC retention time: 4.76 min for the first, 4.05 min for the second.

`CCC1CN2CCC3(O)C(=Nc4cccc(OC)c43)C2CC1C(=COC)C(=O)OC` (stereo unspecified) and `CCC1CN2CCc3c([nH]c4cccc(OC)c34)C2CC1C(=COC)C(=O)OC` (stereo unspecified) are within 1.5-fold of each other in LC retention time: 4.26 min for the first, 5.54 min for the second.

`COc1cc(C=CC(=O)NCCCCNC(=O)C=Cc2ccc(O)c(OC)c2)ccc1O` and `O=C(C=Cc1ccc(O)c(O)c1)OC1CC2(O)CC(OC2=O)C1OC(=O)C=Cc1ccc(O)c(O)c1` (stereo unspecified) are within 1.5-fold of each other in LC retention time: 5.19 min for the first, 4.54 min for the second.

`COc1cc(CC(COC2OC(CO)C(O)C(O)C2O)C(COC2OC(CO)C(O)C(O)C2O)Cc2ccc(O)c(OC)c2)ccc1O` (stereo unspecified) and `CC1OC(OCC2OC(Oc3cc4c(O)cc(O)cc4[o+]c3-c3ccc(O)c(O)c3)C(OC3OC(CO)C(O)C(O)C3O)C(O)C2O)C(O)C(O)C1O` (stereo unspecified) are within 1.5-fold of each other in LC retention time: 3.67 min for the first, 2.75 min for the second.

`COc1cc(-c2oc3cc(OC4OC(C)C(O)C(O)C4O)cc(O)c3c(=O)c2O)ccc1O` (stereo unspecified) and `CC1OC(Oc2cc(O)c3c(=O)c(O)c(-c4ccc(O)cc4)oc3c2)C(O)C(O)C1O` (stereo unspecified) are within 1.5-fold of each other in LC retention time: 3.72 min for the first, 5.28 min for the second.

Going from `O=C1CCCC2C3CCCN4CCCC(CN12)C34` (stereo unspecified) to `COc1ccc2c3c([nH]c2c1)C1CC2C(CC(O)C(OC)C2C(=O)O)CN1CC3` (stereo unspecified), the LC retention time rises from 2.26 min to 3.89 min (1.7-fold).

`CC1OC(OCC2OC(Oc3cc(O)c4c(c3)OC(c3ccc(O)cc3)CC4=O)C(O)C(O)C2O)C(O)C(O)C1O` (stereo unspecified) and `CC1OC(Oc2cc(O)c3c(=O)c(OC4OC(CO)C(O)C(O)C4O)c(-c4ccc(O)cc4)oc3c2)C(O)C(O)C1O` (stereo unspecified) are within 1.5-fold of each other in LC retention time: 4.28 min for the first, 3.7 min for the second.

`CC(CSCC(NC(=O)CCC(N)C(=O)O)C(=O)NCC(=O)O)C(=O)O` (stereo unspecified) and `CC(C)CC(NC(=O)CN)C(=O)O` (stereo unspecified) are within 1.5-fold of each other in LC retention time: 2.36 min for the first, 2.5 min for the second.

`CC(C)=CCc1c(O)ccc2c1OCC(c1ccc(O)cc1O)C2=O` (stereo unspecified) and `COc1ccc(-c2coc3cc(O)c(CC=C(C)C)c(O)c3c2=O)cc1` are within 1.5-fold of each other in LC retention time: 7.51 min for the first, 8.02 min for the second.

`O=C(C=Cc1ccc(O)cc1)OCC1OC(Oc2c(-c3ccc(O)cc3)oc3cc(O)cc(O)c3c2=O)C(O)C(O)C1O` (stereo unspecified) and `O=c1c(OC2OC(COC3OCC(O)C(O)C3O)C(O)C(O)C2O)c(-c2ccc(O)c(O)c2)oc2cc(O)cc(O)c12` (stereo unspecified) are within 1.5-fold of each other in LC retention time: 5.21 min for the first, 3.7 min for the second.

`O=C1c2ccc(O)cc2OCC1c1ccc(O)c(OC2OC(CO)C(O)C(O)C2O)c1` (stereo unspecified) and `O=c1oc2cc(OC3OC(CO)C(O)C(O)C3O)ccc2c2oc3cc(O)ccc3c12` (stereo unspecified) are within 1.5-fold of each other in LC retention time: 3.56 min for the first, 4.38 min for the second.

`COc1cc(-c2[o+]c3cc(O)cc(O)c3cc2OC2OC(CO)C(O)C(O)C2O)ccc1O` (stereo unspecified) and `COc1cc(-c2cc(=O)c3c(O)c(C4OC(CO)C(O)C(O)C4O)c(OC)cc3o2)ccc1O` (stereo unspecified) are within 1.5-fold of each other in LC retention time: 3.15 min for the first, 4.21 min for the second.

`CCN1CC2(CO)CCC(OC)C34C5CC6C(OC)CC(O)(C5C6OC)C(O)(C(OC)C23)C14` (stereo unspecified) and `CCN1CC2(COC)CCC(O)C34C5CC6C(OC)CC(O)(C(CC23)C14)C5C6O` (stereo unspecified) are within 1.5-fold of each other in LC retention time: 3.67 min for the first, 2.91 min for the second.

`COc1cc(C=CC(=O)OC2OC(CO)C(O)C(O)C2O)cc(OC)c1O` (stereo unspecified) and `COc1ccc2c(c1)OC(OC1OC(CO)C(O)C(O)C1O)C(=O)N2OC` (stereo unspecified) are within 1.5-fold of each other in LC retention time: 3.54 min for the first, 4.1 min for the second.

Going from `C=C1CC(=CC)C(=O)OC2CCN3CC=C(COC(=O)C1(C)O)C23` (stereo unspecified) to `COC(=O)C1=C2Nc3ccccc3C23CCN2C4OC56C7CC4(CN5c4c(OC)cccc4C64CCN5CCC6OCCC6(C7)C54)C4OCCC4(C1)C23` (stereo unspecified), the LC retention time rises from 3.45 min to 5.79 min (1.7-fold).

`COc1cc(C=CC(=O)OCC2OC(OC3C(c4c(O)cc5oc(-c6ccc(O)c(O)c6)cc(=O)c5c4O)OC(CO)C(O)C3O)C(O)C(O)C2O)ccc1O` (stereo unspecified) and `O=C(CCc1ccc(O)cc1)c1c(O)c(C2OC(CO)C(O)C(O)C2O)c(O)c(C2OC(CO)C(O)C(O)C2O)c1O` (stereo unspecified) are within 1.5-fold of each other in LC retention time: 3.87 min for the first, 4.01 min for the second.

`O=C(C=Cc1ccc(O)c(O)c1)OC1CC(O)(C(=O)O)CC(OC(=O)C=Cc2ccc(O)c(O)c2)C1O` (stereo unspecified) and `Oc1cc(O)c2c(c1)OC(c1ccc(O)c(O)c1)C(O)C2c1c(O)cc(O)c2c1OC(c1ccc(O)c(O)c1)C(O)C2c1c(O)cc(O)c2c1OC(c1ccc(O)c(O)c1)C(O)C2` (stereo unspecified) are within 1.5-fold of each other in LC retention time: 4.6 min for the first, 3.46 min for the second.

`CC(CCC1(O)OC2CC3C4CC=C5CC(O)CC(OC6OCC(O)C(O)C6OC6OC(C)C(O)C(O)C6O)C5(C)C4CCC3(C)C2C1C)COC1OC(CO)C(O)C(O)C1O` (stereo unspecified) and `CC1OC(OC2C(O)COC(OC3C(C)OC(OC4C(OC(=O)C56CCC(C)(C)CC5C5=CCC7C8(C)CCC(OC9OC(CO)C(O)C(O)C9O)C(C)(CO)C8CCC7(C)C5(C)CC6O)OCC(O)C4O)C(O)C3O)C2O)C(O)C(O)C1O` (stereo unspecified) are within 1.5-fold of each other in LC retention time: 4.48 min for the first, 5.79 min for the second.

`CC1(C)CCC2(C(=O)O)CCC3(C)C(=CCC4C5(C)CC(O)C(O)C(C)(C(=O)OC6OC(COC(=O)CC(=O)O)C(O)C(O)C6O)C5CCC43C)C2C1` (stereo unspecified) and `CC1OC(OC2C(OC3C(OC4CCC5(C)C(CCC6(C)C5CC=C5C7CC(C)(C)C(OC8OC(C)C(O)C(O)C8O)CC7(C)CCC56C)C4(C)CO)OC(C(=O)O)C(O)C3O)OC(C(=O)O)C(O)C2O)C(O)C(O)C1O` (stereo unspecified) are within 1.5-fold of each other in LC retention time: 7.45 min for the first, 5.68 min for the second.

Going from `CCCCCC(=O)OC1C(OC2(CO)OC(CO)C(OC(C)=O)C2O)OC(CO)C(OC(=O)CCCC)C1OC(=O)CCCCC` (stereo unspecified) to `O=C(O)CCCCCCCC(=O)O`, the LC retention time falls from 9.49 min to 4.78 min (2-fold).

First: CCC(C)C(N)C(=O)NC(C(=O)O)C(C)C (stereo unspecified)
Second: O=C1CC(c2ccccc2)Oc2cc(O)cc(O)c21 (stereo unspecified)
The LC retention time of the first is 2.9-fold lower: 2.55 min for the first, 7.47 min for the second.

Compared with `CN1CCCCC1c1ccc(-c2cccnc2)nc1` (stereo unspecified), `COc1cc(C2c3cc4c(cc3C(O)C3COC(=O)C23)OCO4)cc(OC)c1OC` (stereo unspecified) is 2.6-fold higher in LC retention time: 2.37 min for the first, 6.26 min for the second.

Reference: the RepoRT retention time repository
